The assay deals with spontaneously hypertensive rats (SHR) on 2.2% salt diet. In words: Renal interstitial fibrosis after 4-week peptide infusion in SHR on 2.2% salt diet. In kind it is in vivo, rat. The note with it: infusion 5 pmol/kg/min intravenously by osmotic minipump for 4 weeks, versus vehicle control, fibrosis as percent surface area. From the text:
For kidney fibrosis experiments, two types of rats were used, spontaneously hypertensive rats (SHR) and normotensive control Wistar-Kyoto rats (WKY) (animals were obtained from Australian Animal Resources, Perth, Western Australia, Australia)
i) Male spontaneously hypertensive (SHR) rats on 2.2% salt diet ii) Male Wistar Kyoto (WKY) rats on 4.4% salt diets
Commencing at 12 weeks of age, the rats were acclimatized to tail cuff blood pressure measurements and handling for 2 weeks. They then underwent operative insertion of an osmotic minipump (Alzet—Manufacturer: Durect Corporation, Cupertino, Calif., USA; Supplier: Bioscientific Gymea, NSW, Australia) which was designed to deliver vehicle alone (Hartman's solution, Baxter Health Care Corporation, USA)—(Controls) or VIP, VIP fragment or analogue at a dose of 4 pmol/kg/min or 5 pmol/kg/min intravenously.
The infusion was continued for 4 weeks, during which the rats were weighed and their blood pressures measured twice weekly. At the end of the 4 week infusion period, the rats were anaesthetized and their kidneys harvested. […]
For quantitation of interstitial fibrosis, twenty microscopic fields from each kidney were digitized and the amount of fibrosis in each determined as percent surface area using Image-Pro Plus V5.0 software (Cybernetics). The mean value for each rat and subsequently for each infusion group was then determined.

In the case of “His-Ser-Asp-Ala-Val-Phe-Thr-Asp-Asn-Tyr-Thr-Arg-Leu-Arg-Lys-Gln-Met-Ala-Val-Lys-Lys-Tyr-Leu-Asn-Ser-Ile-Leu-Asn (HSDAVFTDNYTRLRKQMAVKKYLNSILN; listed as Homo sapiens) [VIP]”, the renal interstitial fibrosis result is “reductions in renal interstitial fibrosis”.

The values above are taken from patent US20140080758A1, “TREATMENT OF KIDNEY DISORDERS WITH VIP FRAGMENTS” (Vectus […] Limited, priority 2008, published 2014).
